# Test results from patent US20230338337A1, “BIOMARKERS FOR CANCER THERAPY USING MDM2 ANTAGONISTS” (OTSUKA PHARMACEUTICAL CO., LTD., priority 2019, published 2023).
# Test system: SJSA-1
# Test: Protocol B: CellTiter-Glo cell viability assay
# Conditions: read-out: SJSA1 IC50 (μM) (Protocol B); Protocol B
row,Molecule,IC50
1,"1-({[(1R)-1-(4-chlorophenyl)-2-[(5-chloropyrimidin-2-yl)methyl]-7-fluoro-5-[1-hydroxy-1-(1-methyl-1H-pyrazol-4-yl)ethyl]-3-oxo-2,3-dihydro-1H-isoindol-1-yl]oxy}methyl)cyclopropane-1-carboxamide [Example 214]",0.22 µM
2,"CCC(O)(c1cc(F)c2c(c1)C(=O)N(Cc1ncc(C#N)cn1)[C@@]2(O[C@H]1CCOC1)c1ccc(Cl)cc1)c1cn(C)cn1 (stereo partly drawn) [Example 369, 2-{[(1R)-1-(4-chlorophenyl)-7-fluoro-5-[1-hydroxy-1-(1-methyl-1H-imidazol-4-yl)propyl]-3-oxo-1-[(3S)-oxolan-3-yloxy]-2,3-dihydro-1H-isoindol-2-yl]methyl}pyrimidine-5-carbonitrile]",0.062 µM
3,"6-{[1-(4-chlorophenyl)-7-fluoro-5-[1-hydroxy-1-(1-methyl-1H-pyrazol-4-yl)ethyl]-3-oxo-1-[cis-3-hydroxycyclobutoxy]-2,3-dihydro-1H-isoindol-2-yl]methyl}pyridine-3-carbonitrile [Example 356]",0.96 µM
4,"6-{[(1R)-1-(4-chlorophenyl)-1-[(1-cyanocyclopropyl)methoxy]-7-fluoro-5-[1-hydroxy-1-(1-methyl-1H-pyrazol-4-yl)ethyl]-3-oxo-2,3-dihydro-1H-isoindol-2-yl]methyl}pyridine-3-carbonitrile [Example 211]",0.36 µM
5,"(3R)-3-(4-chlorophenyl)-2-[(5-chloropyrimidin-2-yl)methyl]-4-fluoro-6-{1-hydroxy-1-[trans-4-hydroxycyclohexyl}-3-[cis-3-hydroxycyclobutoxy]-2,3-dihydro-1H-isoindol-1-one: *fast eluting isomer [Example 496]",1.8 µM
6,"1-({[(1R)-1-(4-chlorophenyl)-2-[(5-chloropyrimidin-2-yl)methyl]-7-fluoro-5-[2-hydroxy-1-(piperazin-1-yl)butan-2-yl]-3-oxo-2,3-dihydro-1H-isoindol-1-yl]oxy}methyl)cyclopropane-1-carbonitrile [Example 537]",0.76 µM
7,"(3R)-3-(4-chlorophenyl)-2-[(5-chloropyridin-2-yl)methyl]-4-fluoro-6-[1-hydroxy-1-(1-methyl-1H-pyrazol-4-yl)ethyl]-3-(2-hydroxyethoxy)-2,3-dihydro-1H-isoindol-1-one [Example 213]",0.25 µM
8,"[2H]C([2H])([2H])C1(C([2H])([2H])O[C@]2(c3ccc(Cl)cc3)c3c(F)cc(C(O)(CC)c4cn(C)cn4)cc3C(=O)N2Cc2ccc(C#N)cn2)CC1 (stereo partly drawn) [Example 439, 6-{[(1R)-1-(4-chlorophenyl)-7-fluoro-1-({1-[hydroxy(^2H2)methyl]cyclopropyl}(^2H2)methoxy)-5-[1-hydroxy-1-(1-methyl-1H-imidazol-4-yl)propyl]-3-oxo-2,3-dihydro-1H-isoindol-2-yl]methyl}pyridine-3-carbonitrile]",0.03 µM
9,"(3R)-2-[(5-chloro-1-oxo-1λ^5-pyridin-2-yl)methyl]-3-(4-chlorophenyl)-4-fluoro-6-[1-hydroxy-1-(1-methyl-1H-pyrazol-4-yl)ethyl]-3-[(1-hydroxycyclopropyl)methoxy]-2,3-dihydro-1H-isoindol-1-one [Example 409]",0.41 µM
10,"5-chloro-2-{[(1R)-1-(4-chlorophenyl)-7-fluoro-5-[(1R)-1-(4-fluorooxan-4-yl)-1-hydroxypropyl]-1-methoxy-3-oxo-2,3-dihydro-1H-isoindol-2-yl]methyl}pyridine-3-carboxylic acid (tris(hydroxymethyl)aminomethane salt) [Example 514]",0.64 µM
11,"6-{[1-(4-chlorophenyl)-7-fluoro-5-[1-hydroxy-1-(1-methyl-1H-pyrazol-4-yl)ethyl]-3-oxo-1-[cis-3-hydroxycyclobutoxy]-2,3-dihydro-1H-isoindol-2-yl]methyl}pyridine-3-carbonitrile [Example 355]",4.7 µM

# Same assay, conditions: read-out: SJSA1 IC50 (μM) (Protocol B); SJSA-1, CellTiter-Glo, 72 hrs
row,Molecule,IC50
1,"4-{[(1R)-1-(4-chlorophenyl)-7-fluoro-5-[1-hydroxy-1-(1-methyl-1H-imidazol-4-yl)propyl]-3-oxo-1-[(3S)-oxolan-3-yloxy]-2,3-dihydro-1H-isoindol-2-yl]methyl}-3-(hydroxymethyl)benzonitrile [Example 92]",0.084 µM
2,"(3S)-3-(4-chlorophenyl)-3-[(1R)-1-(4-chlorophenyl)-7-fluoro-5-[1-hydroxy-1-(oxan-4-yl)ethyl]-1-methoxy-3-oxo-2,3-dihydro-1H-isoindol-2-yl]propanoic acid [Example 88]",0.23 µM

# Target: MDM2-p53 interaction (in vitro translated MDM2) (Homo sapiens (Human), UniProt Q00987)
# Sequence (Q00987 whole entry): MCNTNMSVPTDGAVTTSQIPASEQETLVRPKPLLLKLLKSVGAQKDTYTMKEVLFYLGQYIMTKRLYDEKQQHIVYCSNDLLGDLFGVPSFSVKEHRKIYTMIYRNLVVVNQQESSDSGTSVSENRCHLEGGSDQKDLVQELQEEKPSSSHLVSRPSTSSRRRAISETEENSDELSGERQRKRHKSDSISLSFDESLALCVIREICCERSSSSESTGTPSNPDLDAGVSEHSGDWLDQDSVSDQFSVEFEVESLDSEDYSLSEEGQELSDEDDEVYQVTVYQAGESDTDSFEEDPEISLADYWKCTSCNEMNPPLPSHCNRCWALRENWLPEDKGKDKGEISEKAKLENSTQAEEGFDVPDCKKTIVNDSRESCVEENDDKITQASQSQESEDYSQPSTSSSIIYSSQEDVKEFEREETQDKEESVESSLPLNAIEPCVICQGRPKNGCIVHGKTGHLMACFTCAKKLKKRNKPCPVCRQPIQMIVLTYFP
# Test: MDM2-p53 interaction 96-well plate binding assay (ELISA)
# Conditions: not given
row,Molecule,MDM2 % at concentration
1,"6-{[(1R)-1-(4-chlorophenyl)-7-fluoro-5-[1-hydroxy-1-(1-methyl-1H-pyrazol-4-yl)propyl]-3-oxo-1-[(3S)-oxolan-3-yloxy]-2,3-dihydro-1H-isoindol-2-yl]methyl}pyridine-3-carbonitrile [Example 358]",74%@0.0010

# Same assay, conditions: at 0.0010 μM
row,Molecule,MDM2 % inhibition at 0.0010
1,"6-{[(1R)-1-(4-chlorophenyl)-7-fluoro-5-[1-(4-fluoropiperidin-4-yl)-1-hydroxypropyl]-3-oxo-1-[(3S)-oxolan-3-yloxy]-2,3-dihydro-1H-isoindol-2-yl]methyl}pyridine-3-carbonitrile [Example 546]",86%@0.0010
2,"2-{[(1R)-1-(4-chlorophenyl)-7-fluoro-5-[(1R)-1-(4-fluorooxan-4-yl)-1-hydroxypropyl]-3-oxo-1-[cis-3-hydroxycyclobutoxy]-2,3-dihydro-1H-isoindol-2-yl]methyl}pyrimidine-5-carbonitrile [Example 505]",60%@0.0010
3,"2-[(5-chloro-3-hydroxypyridin-2-yl)methyl]-3-(4-chlorophenyl)-4-fluoro-6-[(1S)-1-hydroxy-1-(1-methylpiperidin-4-yl)propyl]-3-[(3S)-oxolan-3-yloxy]-2,3-dihydro-1H-isoindol-1-one [Example 568]",76%@0.0010
4,"1-({[(1R)-1-(4-chlorophenyl)-2-[(5-chloropyrimidin-2-yl)methyl]-7-fluoro-5-[2-hydroxy-1-(piperazin-1-yl)butan-2-yl]-3-oxo-2,3-dihydro-1H-isoindol-1-yl]oxy}methyl)cyclopropane-1-carbonitrile [Example 536]",64%@0.0010
5,"(3R)-3-(4-chlorophenyl)-2-[(5-chloropyrimidin-2-yl)methyl]-4-fluoro-6-{1-hydroxy-1-[trans-4-hydroxycyclohexyl]propyl}-3-methoxy-2,3-dihydro-1H-isoindol-1-one [Example 511]",72%@0.0010
6,"(3R)-3-(4-chlorophenyl)-2-[(5-chloropyridin-2-yl)methyl]-4-fluoro-6-[1-(4-fluoropiperidin-4-yl)-1-hydroxypropyl]-3-[(2R)-2-hydroxypropoxy]-2,3-dihydro-1H-isoindol-1-one [Example 549]",85%@0.0010
7,"2-{[(1R)-1-(4-chlorophenyl)-7-fluoro-5-{1-hydroxy-1-[trans-4-hydroxycyclohexyl]propyl}-3-oxo-1-[(3S)-oxolan-3-yloxy]-2,3-dihydro-1H-isoindol-2-yl]methyl}pyrimidine-5-carbonitrile [Example 503]",87%@0.0010
8,"1-({[(1R)-1-(4-chlorophenyl)-2-[(5-chloropyrimidin-2-yl)methyl]-7-fluoro-5-[1-(4-fluoropiperidin-4-yl)-1-hydroxypropyl]-3-oxo-2,3-dihydro-1H-isoindol-1-yl]oxy}methyl)cyclopropane-1-carbonitrile [Example 545]",94%@0.0010
9,"(3R)-3-(4-chlorophenyl)-2-[(5-chloropyrimidin-2-yl)methyl]-4-fluoro-6-[(1S)-1-hydroxy-1-(1-methylpiperidin-4-yl)propyl]-3-[cis-3-hydroxycyclobutoxy]-2,3-dihydro-1H-isoindol-1-one [Example 560]",30%@0.0010

# Same assay, conditions: at 0.010 μM
row,Molecule,MDM2 % at concentration
1,"(3R)-3-(4-chlorophenyl)-4-fluoro-6-[1-hydroxy-1-(1-methyl-1H-pyrazol-4-yl)ethyl]-3-[(1-hydroxycyclopropyl)methoxy]-2-[(5-methoxypyridin-2-yl)methyl]-2,3-dihydro-1H-isoindol-1-one [Example 228]",61%@0.010

# Same assay, conditions: at 0.030 μM
row,Molecule,MDM2 % at concentration
1,"(3R)-3-(4-Chlorophenyl)-2-[(1R)-1-(5-chloropyridin-2-yl)-2,3-dihydroxypropyl]-4-fluoro-3-[(1-hydroxycyclopropyl)methoxy]-6-(2-hydroxypropan-2-yl)-2,3-dihydro-1H-isoindol-1-one [Example 331]",49%@0.030

# Same assay, conditions: at 0.10 μM
row,Molecule,MDM2 % inhibition at 0.10
1,"6-{[(1R)-1-(4-chlorophenyl)-7-fluoro-5-[1-hydroxy-1-(1-methyl-1H-imidazol-4-yl)butyl]-3-oxo-1-[(3S)-oxolan-3-yloxy]-2,3-dihydro-1H-isoindol-2-yl]methyl}pyridine-3-carbonitrile [Example 473]",44%@0.10
2,"(3R)-2-[(5-chloro-3-hydroxypyridin-2-yl)methyl]-3-(4-chlorophenyl)-4-fluoro-6-[1-hydroxy-1-(1-methyl-1H-imidazol-4-yl)propyl]-3-[cis-3-hydroxycyclobutoxy]-2,3-dihydro-1H-isoindol-1-one [Example 488]",56%@0.10
3,"(3R)-3-(4-chlorophenyl)-2-[(5-chloropyrimidin-2-yl)methyl]-4-fluoro-6-[(1R)-1-hydroxy-1-(1-methylpiperidin-4-yl)propyl]-3-[(3S)-oxolan-3-yloxy]-2,3-dihydro-1H-isoindol-1-one [Example 567]",57%@0.10
4,"2-{[(1R)-1-(4-chlorophenyl)-1-[(1-cyanocyclopropyl)methoxy]-7-fluoro-5-[1-hydroxy-1-(1-methyl-1H-imidazol-4-yl)propyl]-3-oxo-2,3-dihydro-1H-isoindol-2-yl]methyl}pyrimidine-5-carbonitrile [Example 463]",73%@0.10
